Here are results for 27 compounds from patent US8148422B2, “Sulfonamides as TRPM8 modulators” (Janssen Pharmaceutica, NV, priority 2008, dated 2012).

For the test, the target named is T1, canine TRPM8 (Canis lupus familiaris, UniProt Q1A7N1).
T1 construct: expressed in transfected cells
Kind of test: In vitro canine TRPM8 functional assay (Ca2+-sensitive fluorescent dye, FLIPR or FDSS, icilin challenge). Type of test: cell-based. The settings on record: HEK293 cells stably expressing canine TRPM8; for inhibition at 0.2 µM: 0.2 μM compound, icilin challenge; for IC50: icilin at approx. 80% maximal response, eight-point dose-response, single determinations unless otherwise noted, read-out: IC50. The procedure: The functional activity of compounds of the formula (I) was determined by measuring changes in intracellular calcium concentration using a Ca^2+-sensitive fluorescent dye. The changes in fluorescent signal were monitored by a fluorescence plate reader, either a FLIPR™ (Molecular Devices) or FDSS (Hamamatsu).
At 24 hrs prior to assay, HEK293 cells stably expressing canine TRPM8 were seeded in culture medium in black wall, clear-base poly-D-lysine coated 384-well plates (BD Biosciences, NJ, USA) and grown overnight in 5% CO2 at 37° C. On assay day, growth media was removed and cells were loaded with Calcium 3 Dye (Molecular Devices) for 35 min at 37° C., under 5% CO2 and then for 25 min at room temperature and atmosphere. Subsequently, cells were tested for agonist-induced increases in intracellular Ca^2+ levels using FLIPR™ or FDSS. Cells were challenged with a compound of the Formula (I) (at varying concentrations) and intracellular Ca^2+ was measured for 5 min prior to the addition of icilin to all wells to achieve a final concentration that produces approximately an 80% maximal response. EC50 or IC50 values for compounds of the present invention were determined from eight-point dose-response studies. Curves were generated using the average of quadruplicate wells for each data point.

Molecules are shown by their SMILES.

T1 sequence (Q1A7N1 1-1104): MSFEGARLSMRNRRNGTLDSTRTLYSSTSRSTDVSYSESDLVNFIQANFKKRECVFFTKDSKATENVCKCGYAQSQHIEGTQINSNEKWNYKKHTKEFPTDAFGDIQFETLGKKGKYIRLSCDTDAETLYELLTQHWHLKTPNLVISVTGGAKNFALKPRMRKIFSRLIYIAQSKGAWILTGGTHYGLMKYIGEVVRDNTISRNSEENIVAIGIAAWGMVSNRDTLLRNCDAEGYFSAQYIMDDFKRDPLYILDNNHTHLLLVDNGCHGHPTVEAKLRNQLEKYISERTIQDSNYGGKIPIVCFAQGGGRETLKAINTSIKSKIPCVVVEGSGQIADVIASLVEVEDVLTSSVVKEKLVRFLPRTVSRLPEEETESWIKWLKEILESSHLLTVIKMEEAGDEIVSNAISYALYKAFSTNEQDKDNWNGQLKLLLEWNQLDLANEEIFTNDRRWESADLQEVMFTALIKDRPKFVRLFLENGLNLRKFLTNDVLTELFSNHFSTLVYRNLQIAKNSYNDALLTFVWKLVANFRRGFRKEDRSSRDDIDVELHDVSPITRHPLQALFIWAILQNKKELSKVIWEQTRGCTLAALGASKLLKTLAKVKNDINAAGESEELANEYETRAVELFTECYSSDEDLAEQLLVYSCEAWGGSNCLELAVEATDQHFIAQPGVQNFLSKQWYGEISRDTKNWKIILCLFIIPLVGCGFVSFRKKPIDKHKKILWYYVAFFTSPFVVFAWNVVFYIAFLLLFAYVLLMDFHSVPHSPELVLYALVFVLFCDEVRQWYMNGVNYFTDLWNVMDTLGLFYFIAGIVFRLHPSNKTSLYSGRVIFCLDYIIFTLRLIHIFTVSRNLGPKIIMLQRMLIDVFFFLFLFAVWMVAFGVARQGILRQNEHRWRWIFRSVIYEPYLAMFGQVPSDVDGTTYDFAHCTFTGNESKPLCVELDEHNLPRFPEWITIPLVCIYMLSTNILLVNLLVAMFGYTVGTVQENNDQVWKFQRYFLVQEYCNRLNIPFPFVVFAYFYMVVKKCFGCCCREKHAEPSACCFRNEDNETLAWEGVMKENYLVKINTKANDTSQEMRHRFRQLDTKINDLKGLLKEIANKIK

On to `Cc1c(N(Cc2ccc(OC(F)(F)F)cc2)S(=O)(=O)CCN2CCNC(=O)CC2)sc2ccccc12` [Cpd 31, N-(3-Methylbenzo[b]thiophen-2-yl)-N-(4-trifluoromethoxy-benzyl)-2-(5-oxohomopiperazin-1-yl)ethylsulfonamide], for which the inhibition (as a rule, the relative decrease from the control value, in per cent) at 0.2 µM stood at 99% and the half-maximal inhibitory concentration (IC50) (in general, the concentration needed to halve the response being measured) is 0.027 µM.

As for `Cc1c(N(Cc2ccc(F)c(F)c2)S(=O)(=O)CCN(C)Cc2ccccc2)sc2ccccc12` [Cpd 81, N-(3-Methylbenzo[b]thiophen-2-yl)-N-(3,4-difluoro-benzyl)-2-(benzyl-methylamino)ethylsulfonamide], the inhibition at 0.2 µM came out at 101% and the IC50 was found to be 0.036 µM.

With `CCOC(=O)C1CCN(CCS(=O)(=O)N(CCC2CC2)c2sc3ccccc3c2C)CC1` [Cpd 84, N-(3-Methylbenzo[b]thiophen-2-yl)-N-(2-cyclopropyl-ethyl)-2-(4-carboethoxypiperidin-1-yl)ethylsulfonamide], the inhibition at 0.2 µM came to 97% and the IC50 came out at 0.072 µM.

On to `Cc1c(N(CCCCC(F)(F)F)S(=O)(=O)CCN(C)Cc2ccccc2)sc2ccccc12` [Cpd 79, N-(3-Methylbenzo[b]thiophen-2-yl)-N-(5,5,5-trifluoro-n-pent-1-yl)-2-(benzyl-methylamino)ethylsulfonamide], for which the inhibition at 0.2 µM came to 98% and the 50% inhibitory concentration (IC50) was 0.037 µM.

Take `CCCN(CCC)CCS(=O)(=O)N(Cc1ccc(OC(F)(F)F)cc1)c1sc2ccccc2c1Br` [Cpd 5, N-(3-Bromobenzo[b]thiophen-2-yl)-N-(4-trifluoromethoxy-benzyl)-2-(di-propylamino)ethylsulfonamide]: the inhibition at 0.2 µM stood at 101% and the concentration for half-maximal inhibition (IC50) turned out to be 0.022 µM.

Turning to `Cc1c(N(Cc2ccc(OC(F)(F)F)cc2)S(=O)(=O)CCN2CCC(CO)CC2)sc2ccccc12` [Cpd 23, N-(3-Methylbenzo[b]thiophen-2-yl)-N-(4-trifluoromethoxy-benzyl)-2-(4-hydroxymethylpiperidin-1-yl)ethylsulfonamide], the inhibition at 0.2 µM amounted to 97% and the concentration for half-maximal inhibition (IC50) turned out to be 0.044 µM.

On to `CCCCN(CCCC)CCS(=O)(=O)N(Cc1ccc(OC(F)(F)F)cc1)c1ccc2ccccc2c1` [Cpd 56, N-(Naphth-2-yl)-N-(4-trifluoromethoxy-benzyl)-2-(dibutylamino)ethylsulfonamide], for which the inhibition at 0.2 µM worked out at 47%.

As to `Cc1c(N(Cc2ccc(OC(F)(F)F)cc2)S(=O)(=O)CCN(C)C(C)C)sc2ccccc12` [Cpd 8, N-(3-Methylbenzo[b]thiophen-2-yl)-N-(4-trifluoromethoxy-benzyl)-2-(methyl-isopropylamino)ethylsulfonamide], the inhibition at 0.2 µM amounted to 94% and the concentration for half-maximal inhibition (IC50) is 0.05 µM.

As for `CC(=O)N1CCN(CCS(=O)(=O)N(Cc2ccc(OC(F)(F)F)cc2)c2ccc3ccccc3c2)CC1` [Cpd 58, N-(Naphth-2-yl)-N-(4-trifluoromethoxy-benzyl)-2-(4-acetylpiperazin-1-yl)ethylsulfonamide], the inhibition at 0.2 µM is 67%.

Consider `CCCN(CCS(=O)(=O)N(CCCCC(F)(F)F)c1sc2ccccc2c1C)CC(C)C` [Cpd 91, N-(3-Methylbenzo[b]thiophen-2-yl)-N-(5,5,5-tritluoro-n-pent-1-yl)-2-(n-propyl-isobutylamino)ethylsulfonamide], for which the inhibition at 0.2 µM stood at 99% and the IC50 was 0.05 µM.

Take `Cc1c(N(Cc2ccc(OC(F)(F)F)cc2)S(=O)(=O)CCN2CCC(F)(F)C2)sc2ccccc12` [Cpd 45, N-(3-Methylbenzo[b]thiophen-2-yl)-N-(4-trifluoromethoxy-benzyl)-2-(3,3-difluoropyrrolidin-1-yl)ethylsulfonamide]: the inhibition at 0.2 µM is 99% and the IC50 came to 0.009 µM.

As to `Cc1c(N(Cc2ccc(OC(F)(F)F)cc2)S(=O)(=O)CCN2CCCC(F)(F)C2)sc2ccccc12` [Cpd 43, N-(3-Methylbenzo[b]thiophen-2-yl)-N-(4-trifluoromethoxy-benzyl)-2-(3,3-difluoropiperidin-1-yl)ethylsulfonamide], the inhibition at 0.2 µM is 101% and the IC50 was found to be 0.005 µM.

Turning to `Cc1c(N(Cc2ccc(OC(F)(F)F)cc2)S(=O)(=O)CCN2C[C@@H](C)O[C@@H](C)C2)sc2ccccc12` [Cpd 33, N-(3-Methylbenzo[b]thiophen-2-yl)-N-(4-trifluoromethoxy-benzyl)-2-(cis-2,6-dimethylmorpholin-4-yl)ethylsulfonamide], the inhibition at 0.2 µM worked out at 100% and the IC50 came out at 0.024 µM.

Consider `CC(=O)N1CCN(CCS(=O)(=O)N(Cc2ccc(OC(F)(F)F)cc2)c2sc3ccccc3c2C)CC1` [Cpd 29, N-(3-Methylbenzo[b]thiophen-2-yl)-N-(4-trifluoromethoxy-benzyl)-2-(4-acetylpiperazin-1-yl)ethylsulfonamide], for which the inhibition at 0.2 µM was determined as 101% and the IC50 was found to be 0.012 µM.

For `Cc1c(N(Cc2ccc(OC(F)(F)F)cc2)S(=O)(=O)CCN2CCC(O)CC2)sc2ccccc12` [Cpd 20, N-(3-Methylbenzo[b]thiophen-2-yl)-N-(4-trifluoromethoxy-benzyl)-2-(4-hydroxypiperidin-1-yl)ethylsulfonamide], the inhibition at 0.2 µM was found to be 99% and the IC50 was 0.025 µM.

With `CCCN(CCC)CCS(=O)(=O)N(Cc1ccc(OC(F)(F)F)cc1)c1sc2ccccc2c1C` [Cpd 6, N-(3-Methylbenzo[b]thiophen-2-yl)-N-(4-trifluoromethoxy-benzyl)-2-(di-propylamino)ethylsulfonamide], the inhibition at 0.2 µM came to 99% and the IC50 stood at 0.009 µM.

`Cc1c(N(Cc2ccc(OC(F)(F)F)cc2)S(=O)(=O)CCN2CCC2)sc2ccccc12` [Cpd 39, N-(3-Methylbenzo[b]thiophen-2-yl)-N-(4-trifluoromethoxy-benzyl)-2-(azetidin-1-yl)ethylsulfonamide]: the inhibition at 0.2 µM worked out at 80% and the IC50 was found to be 0.113 µM.

For the compound `Cc1c(N(Cc2ccc(OC(F)(F)F)cc2)S(=O)(=O)CCN(C(C)C)C(C)C)sc2ccccc12` [Cpd 59, N-(3-Methylbenzo[b]thiophen-2-yl)-N-(4-trifluoromethoxy-benzyl)-2-(di-isopropylamino)ethylsulfonamide], the inhibition at 0.2 µM was determined as 100% and the IC50 came to 0.008 µM.

`CCCN(CCC)CCS(=O)(=O)N(Cc1ccc(OC(F)(F)F)cc1)c1sc2ccccc2c1Cl` [Cpd 4, N-(3-Chlorobenzo[b]thiophen-2-yl)-N-(4-trifluoromethoxy-benzyl)-2-(di-propylamino)ethylsulfonamide]: the inhibition at 0.2 µM turned out to be 98% and the IC50 turned out to be 0.024 µM.

Take `O=S(=O)(CCN1CCOCC1)N(Cc1ccc(OC(F)(F)F)cc1)c1ccc2ccccc2c1` [Cpd 51, N-(Naphth-2-yl)-N-(4-trifluoromethoxy-benzyl)-2-(morpholin-4-yl)ethylsulfonamide]: the inhibition at 0.2 µM came to 87% and the half-inhibitory concentration (IC50) was determined as 0.028 µM.

On to `CCN(CC)CCS(=O)(=O)N(Cc1ccc(OC(F)(F)F)cc1)c1sc2ccccc2c1C` [Cpd 9, N-(3-Methylbenzo[b]thiophen-2-yl)-N-(4-trifluoromethoxy-benzyl)-2-(diethylamino)ethylsulfonamide], for which the inhibition at 0.2 µM came to 101% and the half-maximal inhibitory concentration (IC50) is 0.019 µM.

`CCCCN(C)CCS(=O)(=O)N(Cc1ccc(OC(F)(F)F)cc1)c1sc2ccccc2c1C` [Cpd 12, N-(3-Methylbenzo[b]thiophen-2-yl)-N-(4-trifluoromethoxy-benzyl)-2-(methyl-butylamino)ethylsulfonamide]: the inhibition at 0.2 µM stood at 96% and the half-maximal inhibitory concentration (IC50) was 0.043 µM.

As for `CCCN(CCC)CCS(=O)(=O)N(Cc1ccc(OC(F)(F)F)cc1)c1cc2ccccc2s1` [Cpd 1, N-(Benzo[b]thiophen-2-yl)-N-(4-trifluoromethoxy-benzyl)-2-(di-propylamino)ethylsulfonamide], the inhibition at 0.2 µM was 78% and the IC50 turned out to be 0.114 µM.

As for `O=S(=O)(CCN1CCCC(F)(F)C1)N(Cc1ccc(OC(F)(F)F)cc1)c1sc2ccccc2c1Br` [Cpd 67, N-(3-Bromobenzo[b]thiophen-2-yl)-N-(4-trifluoromethoxy-benzyl)-2-(3,3-difluoropiperidin-1-yl)ethylsulfonamide], the inhibition at 0.2 µM came to 102% and the half-maximal inhibitory concentration (IC50) came to 0.009 µM.

`O=S(=O)(CCN1CCc2ccccc2C1)N(Cc1ccc(OC(F)(F)F)cc1)c1ccc2ccccc2c1` [Cpd 54, N-(Naphth-2-yl)-N-(4-trifluoromethoxy-benzyl)-2-(1,2,3,4-tetrahydroisoquinolin-2-yl)ethylsulfonamide]: the inhibition at 0.2 µM turned out to be 86% and the IC50 was found to be 0.051 µM.

With `O=S(=O)(CCN1CC(F)(F)C1)N(Cc1ccc(OC(F)(F)F)cc1)c1ccc2ccccc2c1` [Cpd 55, N-(Naphth-2-yl)-N-(4-trifluoromethoxy-benzyl)-2-(3,3-difluoroazetidin-1-yl)ethylsulfonamide], the inhibition at 0.2 µM was found to be 84% and the half-inhibitory concentration (IC50) worked out at 0.109 µM.

Consider `Cc1c(N(Cc2ccc(OC(F)(F)F)cc2)S(=O)(=O)CCN2CCN(c3ccccc3)CC2)sc2ccccc12` [Cpd 30, N-(3-Methylbenzo[b]thiophen-2-yl)-N-(4-trifluoromethoxy-benzyl)-2-(4-phenylpiperazin-1-yl)ethylsulfonamide], for which the inhibition at 0.2 µM was 96% and the IC50 was determined as 0.033 µM.
